In patent US8101408B2, “Insecticidal extract from legume plants and method of preparing the same” (Her Majesty the Queen in right of Canada, as represented by …, priority 2005, dated 2012):

Assays:
Sitophilus oryzae = assay: Flour disk antifeedant bioassay with rice weevils (food consumption as % of control; EC50/EC90 for feeding reduction); format: in vivo; details: RPC isolate; 0.8 mg dose, disks from one-half the usual amount of flour (100 mg)
Description: The bioactivity of separated fractions was determined primarily by a flour disk antifeedant bioassay with the rice weevil (Sitophilus oryzae), an insect pest of stored products.
A glass column (1.2 cm internal diameter×20.5 cm length) equipped with a solvent reservoir and stopcock was filled with silica gel (Mallinckrodt SilicAR cc-7) using a slurry of the silica gel in chloroform (Merck OmniSolv containing 1% ethanol). The top of the bed was protected with sea sand. C8 powder (130 mg) was applied to the column, after mixing with silica gel, as a 1.25 cm band. Using a slight positive air pressure to maintain reasonable flow rates, the column was eluted with chloroform (75 ml) then with 75 ml volumes of various mixtures of chloroform and methanol followed by pure methanol (Table 1). The column was eluted with more methanol (75 ml) and finally with two additional volumes of methanol (250 ml each). […] A final evaporation was performed with a Savant apparatus (43° C.). The tubes were re-weighed, capped and transferred to the bioassay laboratory. Each sample was dissolved in 70% ethanol (0.5 ml) and 0.2 ml of that solution was added to the wheat flour (200 mg) for preparation of the disks. […] Control disks were prepared with 0.2 ml of 70% ethanol.
A test insecticidal compound is incorporated into flour disks. […] A typical dose in many of the above examples is 1.6 milligram/200 milligram flour. Wheat flour is typically used.
Reduction in feeding activity elicited by the experimental samples was compared to food consumption of untreated controls, obtained by weighing the disks before and after exposure to insects and expressed as percent feeding relative to the control. Bioassay can also include insecticidal measurements (lethality with rice weevil).
Flour disks (ca. 0.1 g/disk) were weighed before and after exposure to the insects. […] Antifeedant activity was determined by expressing consumption of treated disks as a percentage of control disks (70% ethanol). Positive controls using the same C8 extract were run with each bioassay.
The estimate and confidence limits are the values of X where the line Y=Yo crosses the regression line and its upper and lower confidence curves, respectively. The formulae can be expressed in terms of outputs from the regression analysis. Let a and b be the estimates of the intercept and slope, MSE the mean square error, n the number of observations, t the (2-sided) critical value of t with n−2 degrees of freedom, V(b) the variance (standard error squared) of b and D=b^2−t^2V(b)). Then the estimate of X is Xo=(Yo−a)/b and the confidence limits for X are X0+t^2V(b)(Y0− Y)/bD±H where H^2=t^2└D·MSE/n+V(b)(Y0− Y)^2┘/D^2. The interval is not symmetric about Xo. […]

[1] = Stability in solution or on storage judged by TLC, HPLC and mass spectrometry; format: physicochemical
Text: Samples containing soyasaponin VI, freshly prepared in 80% ethanol, could be shown to contain intact soyasaponin VI by HPLC/MS with electrospray ionization, by the appearance of the strong quasimolecular ion at mass1069. However, the samples were always contaminated with soyasaponin I (quasimolecular ion at 943).
The peptide of mass 3788 was of particular interest because its molecular weight was the same as that of PA1b described by Higgins et al. (1986). During RPC, the 3788 peptide was found in highest concentrations in the end fractions from silica gel flash chromatography of C8 with chloroform-water-methanol and then methanol as eluent (system 1 isolate).

[2] = tested on: sugar taste receptor cells of the blowfly; details: Ahamed et al., 2000; cited from earlier work

## CC1=C(O)C(=O)C[C@H](O[C@@H]2CC(C)(C)C[C@H]3C4=CC[C@@H]5[C@@]6(C)CC[C@H](O[C@@H]7O[C@H](C(=O)O)[C@@H](O)[C@H](O)[C@H]7O[C@@H]7O[C@H](CO)[C@H](O)[C@H](O)[C@H]7O[C@@H]7O[C@@H](C)[C@H](O)[C@@H](O)[C@H]7O)[C@](C)(CO)[C@@H]6CC[C@@]5(C)[C@]4(C)CC[C@@]23C)O1 [Soyasaponin VI, soyasaponin VI]
Sitophilus oryzae
  food consumption in the rice weevil bioassay: 80%
[1]
  stability (in words): somewhat unstable in solution
[2]
  effect on sugar taste receptor cells (in words): stimulate the sugar taste receptor cells
